# Measured values as given in PubChem BioAssay AID2060484 (Molecular Pharmacology Branch, DTP, NCI, 2025).
# Tested on: SUM149PT spheroids with HUVEC/MSC, viability
# Assay: Anticancer human tumor SUM149PT cell line growth inhibition [GQUAD];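 note: spheroids exposed to drugs for seven days before readout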;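 for viability, T/C: percent viability relative to DMSO vehicle control taken as 100%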
# Settings: for IC50: curve of first compound; for viability, T/C: stronger effect = lower value
# How it was run: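 Multi-cell-type spheroids of tumor cells with HUVEC and mesenchymal stem cells, treated with drug combinations. Concentrations descend in half-log steps from near clinical Cmax, or from 10 microM where Cmax is unknown; viability read-out.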
# [1] = second compound 0.0316 µM, first compound 0.0316 µM
# [2] = second compound 0.0316 µM, first compound 0.1 µM
# [3] = second compound 0.0316 µM, first compound 0.316 µM
# [4] = second compound 0.0316 µM, first compound 1 µM
# [5] = second compound 0.0316 µM, first compound 3.16 µM
# [6] = second compound 0.0316 µM, first compound 10 µM
# [7] = second compound 0.1 µM, first compound 0.0316 µM
# [8] = second compound 0.1 µM, first compound 0.1 µM
# [9] = second compound 0.1 µM, first compound 0.316 µM
# [10] = second compound 0.1 µM, first compound 1 µM
# [11] = second compound 0.1 µM, first compound 3.16 µM
# [12] = second compound 0.1 µM, first compound 10 µM
# [13] = second compound 0.316 µM, first compound 0.0316 µM
# [14] = second compound 0.316 µM, first compound 0.1 µM
# [15] = second compound 0.316 µM, first compound 0.316 µM
# [16] = second compound 0.316 µM, first compound 1 µM
# [17] = second compound 0.316 µM, first compound 3.16 µM
# [18] = second compound 0.316 µM, first compound 10 µM
# [19] = second compound 1 µM, first compound 0.0316 µM
# [20] = second compound 1 µM, first compound 0.1 µM
# [21] = second compound 1 µM, first compound 0.316 µM
# [22] = second compound 1 µM, first compound 1 µM
# [23] = second compound 1 µM, first compound 3.16 µM
# [24] = second compound 1 µM, first compound 10 µM
# [25] = second compound 3.16 µM, first compound 0.0316 µM
# [26] = second compound 3.16 µM, first compound 0.1 µM
# [27] = second compound 3.16 µM, first compound 0.316 µM
# [28] = second compound 3.16 µM, first compound 1 µM
# [29] = second compound 3.16 µM, first compound 3.16 µM
# [30] = second compound 3.16 µM, first compound 10 µM
# [31] = second compound 10 µM, first compound 0.0316 µM
# [32] = second compound 10 µM, first compound 0.1 µM
# [33] = second compound 10 µM, first compound 0.316 µM
# [34] = second compound 10 µM, first compound 1 µM
# [35] = second compound 10 µM, first compound 3.16 µM
# [36] = second compound 10 µM, first compound 10 µM
smiles,measurement,setting,value
COc1cccc2c1C(=O)c1c(O)c3c(c(O)c1C2=O)CC(O)(C(=O)CO)CC3OC1CC(N)C(O)C(C)O1 (stereo unspecified) + CN(C)c1ccc(Nc2c3ccc(NC(=O)CCN4CCCC4)cc3nc3cc(NC(=O)CCN4CCCC4)ccc23)cc1,IC50,second compound 0.0316 µM,0.279 µM
same,IC50,second compound 0.1 µM,0.26 µM
same,IC50,second compound 0.316 µM,0.273 µM
same,IC50,second compound 1 µM,0.159 µM
same,IC50,second compound 3.16 µM,0.24 µM
same,IC50,second compound 10 µM,0.217 µM
same,"viability, T/C",[1],102%
same,"viability, T/C",[2],67.8%
same,"viability, T/C",[3],52.5%
same,"viability, T/C",[4],27.3%
same,"viability, T/C",[5],5.04%
same,"viability, T/C",[6],1.9%
same,"viability, T/C",[7],97.9%
same,"viability, T/C",[8],67.9%
same,"viability, T/C",[9],48.2%
same,"viability, T/C",[10],27.4%
same,"viability, T/C",[11],2.62%
same,"viability, T/C",[12],0.68%
same,"viability, T/C",[13],79.5%
same,"viability, T/C",[14],67.5%
same,"viability, T/C",[15],46.9%
same,"viability, T/C",[16],25.2%
same,"viability, T/C",[17],2.96%
same,"viability, T/C",[18],1.86%
same,"viability, T/C",[19],73.5%
same,"viability, T/C",[20],53.2%
same,"viability, T/C",[21],42.5%
same,"viability, T/C",[22],23.4%
same,"viability, T/C",[23],3.28%
same,"viability, T/C",[24],1.27%
same,"viability, T/C",[25],71%
same,"viability, T/C",[26],58.4%
same,"viability, T/C",[27],48.1%
same,"viability, T/C",[28],24.1%
same,"viability, T/C",[29],4.84%
same,"viability, T/C",[30],2.15%
same,"viability, T/C",[31],78.9%
same,"viability, T/C",[32],59.2%
same,"viability, T/C",[33],45.6%
same,"viability, T/C",[34],28.1%
same,"viability, T/C",[35],4%
same,"viability, T/C",[36],2.22%
Nc1ccn(C2OC(CO)C(O)C2(F)F)c(=O)n1 (stereo unspecified) + CN(C)c1ccc(Nc2c3ccc(NC(=O)CCN4CCCC4)cc3nc3cc(NC(=O)CCN4CCCC4)ccc23)cc1,IC50,second compound 0.0316 µM,0.11 µM
same,IC50,second compound 0.1 µM,0.173 µM
same,IC50,second compound 0.316 µM,0.128 µM
same,IC50,second compound 1 µM,0.0965 µM
same,IC50,second compound 3.16 µM,0.0628 µM
same,IC50,second compound 10 µM,0.0421 µM
same,"viability, T/C",[1],87.9%
same,"viability, T/C",[2],51%
same,"viability, T/C",[3],34.6%
same,"viability, T/C",[4],27.2%
same,"viability, T/C",[5],25.9%
same,"viability, T/C",[6],20.8%
same,"viability, T/C",[7],80.2%
same,"viability, T/C",[8],59.7%
same,"viability, T/C",[9],39.6%
same,"viability, T/C",[10],26.7%
same,"viability, T/C",[11],23.7%
same,"viability, T/C",[12],20.8%
same,"viability, T/C",[13],68.1%
same,"viability, T/C",[14],55.3%
same,"viability, T/C",[15],34.7%
same,"viability, T/C",[16],26.6%
same,"viability, T/C",[17],25.6%
same,"viability, T/C",[18],15.8%
same,"viability, T/C",[19],65.8%
same,"viability, T/C",[20],51.2%
same,"viability, T/C",[21],32.7%
same,"viability, T/C",[22],27.9%
same,"viability, T/C",[23],21.4%
same,"viability, T/C",[24],16.5%
same,"viability, T/C",[25],65.4%
same,"viability, T/C",[26],39.8%
same,"viability, T/C",[27],24.3%
same,"viability, T/C",[28],21.6%
same,"viability, T/C",[29],17.8%
same,"viability, T/C",[30],14.8%
same,"viability, T/C",[31],55.1%
same,"viability, T/C",[32],35.7%
same,"viability, T/C",[33],25%
same,"viability, T/C",[34],20.9%
same,"viability, T/C",[35],18.8%
same,"viability, T/C",[36],13.4%
O=c1[nH]cc(F)c(=O)[nH]1 + CN(C)c1ccc(Nc2c3ccc(NC(=O)CCN4CCCC4)cc3nc3cc(NC(=O)CCN4CCCC4)ccc23)cc1,IC50,second compound 0.0316 µM,8.99 µM
same,IC50,second compound 0.1 µM,> 10 µM
same,IC50,second compound 0.316 µM,8.35 µM
same,IC50,second compound 1 µM,8.64 µM
same,IC50,second compound 3.16 µM,6.64 µM
same,IC50,second compound 10 µM,4.53 µM
same,"viability, T/C",[1],105%
same,"viability, T/C",[2],93.2%
same,"viability, T/C",[3],99.2%
same,"viability, T/C",[4],98.8%
same,"viability, T/C",[5],63.5%
same,"viability, T/C",[6],48.6%
same,"viability, T/C",[7],100%
same,"viability, T/C",[8],92%
same,"viability, T/C",[9],94.4%
same,"viability, T/C",[10],99.3%
same,"viability, T/C",[11],61.5%
same,"viability, T/C",[12],57.3%
same,"viability, T/C",[13],86.5%
same,"viability, T/C",[14],93.3%
same,"viability, T/C",[15],86.5%
same,"viability, T/C",[16],89.5%
same,"viability, T/C",[17],70%
same,"viability, T/C",[18],46.2%
same,"viability, T/C",[19],83.5%
same,"viability, T/C",[20],91.6%
same,"viability, T/C",[21],94.8%
same,"viability, T/C",[22],99.4%
same,"viability, T/C",[23],68.8%
same,"viability, T/C",[24],47.2%
same,"viability, T/C",[25],81.5%
same,"viability, T/C",[26],80%
same,"viability, T/C",[27],82.8%
same,"viability, T/C",[28],92.5%
same,"viability, T/C",[29],60%
same,"viability, T/C",[30],44.5%
same,"viability, T/C",[31],80.6%
same,"viability, T/C",[32],80.9%
same,"viability, T/C",[33],91.2%
same,"viability, T/C",[34],94%
same,"viability, T/C",[35],52.5%
same,"viability, T/C",[36],44.3%
